Results reported in a melting point compilation (Tetko et al.; mined from patent text by program, amines drawn as free bases though some values may be those of a salt).

SMILES | melting point
Nc1nc(=O)n(C2CC(O)C(CNC(=O)Cc3ccccc3Br)O2)cc1Br (stereo unspecified) | 164 to 167 °C
CCOC(=O)C=Cc1ccc(F)c([N+](=O)[O-])c1 | 115 to 117 °C
CNc1c(S(=O)(=O)C(F)(F)F)c(-c2ncon2)nn1-c1c(Cl)cc(C(F)(F)F)cc1Cl | 156 to 158 °C
COc1c(Cl)ccnc1C(=O)O | 116 to 117 °C
CC=C1CCC2C3CC=C4CC(O[Si](CC)(CC)CC)CC(O[Si](CC)(CC)CC)C4(C)C3CCC12C (stereo unspecified) | 81 to 82 °C
Cn1c(=O)c2c(ncn2COC(=O)C(C)(C)C)n(C)c1=O | 108 to 110 °C
COc1cccc([C@H]2O[C@H](CC(=O)NCCCOc3cccc(C(=O)O)c3)C(=O)N(CC(C)(C)CO)c3ccc(Cl)cc32)c1OC | 132 to 134 °C
COC(=O)C(C(C)C)N(C)S(=O)(=O)c1ccc(-c2ccc(NC(=O)c3oc4cccc(C(O)CO)c4c3C)cc2)cc1 (stereo unspecified) | 182 to 185 °C
Cc1noc(CC(=O)N(N)C(=O)c2ccco2)n1 | 169 to 171 °C
COc1cc(C(=O)C#CC(=O)N(C)C)cc(OC)c1OC | 118 to 119 °C
CC(=O)NCCc1coc2ccc3c(c12)CCCO3 | 162 °C
CCc1nc2nc3cc(Cl)ccc3nc2n1C(=O)c1ccccc1Br | 130 to 132 °C
O=C(O)C=Cc1ccc(Cn2ccnc2)c(Cl)c1 | 227 to 229 °C
COC(=O)c1ccc(OC[C@H](C)N(C)C(=O)C(F)(F)F)cc1 | 73 to 75 °C
COCCc1nc2c(N)nc3ccccc3c2n1CCCCCCCCNC(=O)c1ccccc1 | 133 to 138 °C
Cc1cc(O)cc(Br)c1C | 98 to 99 °C
COc1ccc(CN(C)CCCOc2ccc(NC(=O)c3cccc4c(=O)c5cccc(OC)c5[nH]c34)cc2)cc1OC | 180 °C
CCc1nn(CCNC(=O)OC(C)(C)C)c(CN)c1Oc1cc(Cl)cc(Cl)c1 | 112 to 114 °C
CCCNC(=O)c1ccc(C)c(-c2nc(N(C)CCCN(C)C)nc3c2ccc(=O)n3-c2c(F)cccc2F)c1 | 104 to 109 °C
CCCC1(C)CC(=O)NC(=O)C1 | 110 to 112 °C

Further lines, results first:

melting point | SMILES
235 to 236 °C | CC(=O)N1CCC(c2nc(-c3ccncc3)c(-c3ccc(F)cc3)[nH]2)CC1
116 °C | CCOCN(c1ccccc1CN1CCC(c2ccccc2)OC1=O)S(=O)(=O)C(F)(F)F (stereo unspecified)
159 to 163 °C | Cc1nn(C)c2cc(-c3ccc4nnn(Cc5ccc6ncccc6c5)c4n3)ccc12
169 to 170 °C | O=C(O)c1ccc(C2(C(=O)Oc3ccc(C(=O)NO)cc3)CCCCC2)cc1
203 to 205 °C | Cc1nn(-c2ccccn2)c2nc3ccccc3c(N3CCOCC3)c12
79 to 82 °C | OC(CCc1cccnc1)COc1ccc(OCc2ccccc2)cc1 (stereo unspecified)
234 °C | O=C(O)c1ccccc1C(=O)c1cc(-c2ccccc2)c(O)c(-c2ccccc2)c1
214 to 216 °C | CC(C)(c1ccc(Oc2ccc(N3C(=O)C=CC3=O)cc2)cc1)c1ccc(C(C)(C)c2ccc(Oc3ccc(N4C(=O)C=CC4=O)cc3)cc2)cc1
244 °C | O=C(c1ccc(OC(F)F)c2oc3ccccc3c12)[NH+]([O-])c1ccncc1 (stereo unspecified)
160 to 164 °C | COc1ccc(S(=O)(=O)N2C(=O)C(OC(=O)N3CCN(c4ccncc4)CC3)(c3ccccc3OC(C)C)c3cc(Cl)ccc32)c(OC)c1 (stereo unspecified)
97 to 99 °C | CNCCOc1cc(NC(=O)c2ccc(-c3ccc(-c4noc(C)n4)cc3C)cc2)ccc1OC
164 to 167 °C | N#CC(Cc1ccccc1)=NNc1ccc(C(O)(C(F)(F)F)C(F)(F)F)cc1
258 to 262 °C | N#Cc1ccc(N2CCN(c3ccc(O)cc3)CC2)cc1
160 to 162 °C | O=C(c1ccccc1)c1cc(O)ccc1O
96.8 to 97.3 °C | COc1ccc(C=N[C@H]2COc3c(F)ccc(OC)c3C2)cc1
180 to 181 °C | CC1CCCC(C)N1Cc1ccc2cc(NC(=O)c3ccc(-c4ccccc4)cc3)ccc2n1 (stereo unspecified)
